In ChEMBL document CHEMBL1201862, “PubChem BioAssay data set” (2004):
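Where inhibition never reached the appropriate level, the endpoint shown equals the highest concentration tested. Otherwise, values were interpolated linearly from a five-concentration, 48-hour dose response in 96-well plates. GI50: concentration for 50% inhibition of growth.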 The source made the active and inactive calls. Rule as the data show it: active = GI50 up to about 1.1 µM and inactive = higher.

What was measured:
Experiment in all cases: NCI-60 cell line screen, 48 h
HCT-116 = test system: HCT-116
NCI-H23 = test system: NCI-H23
NCI-H226 = test system: NCI-H226
RXF 631 = test system: RXF 631
M19-MEL = test system: M19-MEL
DLD-1 = test system: DLD-1
OVCAR-4 = test system: OVCAR-4
SK-MEL-2 = test system: SK-MEL-2
UACC-257 = test system: UACC-257
HL-60 = test system: HL-60
SR = test system: SR
HCC 2998 = test system: HCC 2998
CCRF-CEM = test system: CCRF-CEM
LOX IMVI = test system: LOX IMVI
786-0 = test system: 786-0
HOP-62 = test system: HOP-62
LXFL 529 = test system: LXFL 529
HT-29 = test system: HT-29
SK-MEL-28 = test system: SK-MEL-28
M14 = test system: M14
UO-31 = test system: UO-31
SF-539 = test system: SF-539
A498 = test system: A498
OVCAR-5 = test system: OVCAR-5
U-251 = test system: U-251
XF498 = test system: XF498
SF-295 = test system: SF-295
EKVX = test system: EKVX
OVCAR-8 = test system: OVCAR-8
SNB-78 = test system: SNB-78
A549 = test system: A549
SN12C = test system: SN12C
SK-OV-3 = test system: SK-OV-3
DMS-114 = test system: DMS-114
HCT-15 = test system: HCT-15
IGROV-1 = test system: IGROV-1
NCI-H460 = test system: NCI-H460
KM12 = test system: KM12
SW-620 = test system: SW-620
HOP-18 = test system: HOP-18
HOP-92 = test system: HOP-92
SNB-75 = test system: SNB-75
COLO 205 = test system: COLO 205
SF-268 = test system: SF-268
ACHN = test system: ACHN
MOLT-4 = test system: MOLT-4
NCI-H522 = test system: NCI-H522
K562 = test system: K562
RPMI-8226 = test system: RPMI-8226
TK-10 = test system: TK-10
CAKI-1 = test system: CAKI-1
SK-MEL-5 = test system: SK-MEL-5
UACC-62 = test system: UACC-62
Malme-3M = test system: Malme-3M
SNB-19 = test system: SNB-19
KM-20L2 = test system: KM-20L2
OVCAR-3 = test system: OVCAR-3
DMS-273 = test system: DMS-273
RXF 393 = test system: RXF 393

## CCOC(=O)/C(=C/c1ccc(C#N)cc1)N(CC)CC
HCT-116
  GI50: > 100 µM (inactive)
NCI-H23
  GI50: > 100 µM (inactive)
NCI-H226
  GI50: > 100 µM (inactive)
RXF 631
  GI50: > 100 µM (inactive)
M19-MEL
  GI50: > 100 µM (inactive)
DLD-1
  GI50: > 100 µM (inactive)
OVCAR-4
  GI50: > 100 µM (inactive)
SK-MEL-2
  GI50: > 100 µM (inactive)
UACC-257
  GI50: > 100 µM (inactive)
HL-60
  GI50: > 100 µM (inactive)
SR
  GI50: > 100 µM (inactive)
HCC 2998
  GI50: > 100 µM (inactive)
CCRF-CEM
  GI50: > 100 µM (inactive)
LOX IMVI
  GI50: > 100 µM (inactive)
786-0
  GI50: > 100 µM (inactive)
HOP-62
  GI50: > 100 µM (inactive)
LXFL 529
  GI50: > 100 µM (inactive)
HT-29
  GI50: > 100 µM (inactive)
SK-MEL-28
  GI50: > 100 µM (inactive)
M14
  GI50: > 100 µM (inactive)
UO-31
  GI50: > 100 µM (inactive)
SF-539
  GI50: > 100 µM (inactive)
A498
  GI50: > 100 µM (inactive)
OVCAR-5
  GI50: > 100 µM (inactive)
U-251
  GI50: > 100 µM (inactive)
XF498
  GI50: > 100 µM (inactive)
SF-295
  GI50: 1.88 µM (inactive)
EKVX
  GI50: > 100 µM (inactive)
OVCAR-8
  GI50: > 100 µM (inactive)
SNB-78
  GI50: > 100 µM (inactive)
A549
  GI50: > 100 µM (inactive)
SN12C
  GI50: > 100 µM (inactive)
SK-OV-3
  GI50: > 100 µM (inactive)
DMS-114
  GI50: > 100 µM (inactive)
HCT-15
  GI50: > 100 µM
IGROV-1
  GI50: > 100 µM (inactive)
NCI-H460
  GI50: > 100 µM (inactive)
KM12
  GI50: > 100 µM (inactive)
SW-620
  GI50: > 100 µM (inactive)
HOP-18
  GI50: 63 µM (inactive)
HOP-92
  GI50: > 100 µM (inactive)
SNB-75
  GI50: > 100 µM (inactive)
COLO 205
  GI50: > 100 µM (inactive)
SF-268
  GI50: > 100 µM (inactive)
ACHN
  GI50: > 100 µM (inactive)
MOLT-4
  GI50: > 100 µM (inactive)
NCI-H522
  GI50: > 100 µM (inactive)
K562
  GI50: > 100 µM (inactive)
RPMI-8226
  GI50: > 100 µM (inactive)
TK-10
  GI50: > 100 µM (inactive)
CAKI-1
  GI50: > 100 µM (inactive)
SK-MEL-5
  GI50: > 100 µM (inactive)
UACC-62
  GI50: > 100 µM (inactive)
Malme-3M
  GI50: > 100 µM (inactive)

## CCC(C(=O)c1ccccc1)C(CCCC(=O)Nc1c(C)cccc1C)N=O (configuration not stated)
HCT-116
  GI50: > 100 µM (inactive)
NCI-H23
  GI50: > 100 µM (inactive)
NCI-H226
  GI50: > 100 µM (inactive)
RXF 631
  GI50: > 100 µM (inactive)
M19-MEL
  GI50: > 100 µM (inactive)
DLD-1
  GI50: > 100 µM (inactive)
OVCAR-4
  GI50: > 100 µM (inactive)
SK-MEL-2
  GI50: > 100 µM (inactive)
UACC-257
  GI50: > 100 µM (inactive)
HL-60
  GI50: > 100 µM (inactive)
SR
  GI50: > 100 µM (inactive)
HCC 2998
  GI50: > 100 µM (inactive)
CCRF-CEM
  GI50: > 100 µM (inactive)
786-0
  GI50: > 100 µM (inactive)
HOP-62
  GI50: > 100 µM (inactive)
LXFL 529
  GI50: > 100 µM (inactive)
HT-29
  GI50: > 100 µM (inactive)
SK-MEL-28
  GI50: > 100 µM (inactive)
M14
  GI50: > 100 µM (inactive)
UO-31
  GI50: > 100 µM (inactive)
SF-539
  GI50: > 100 µM (inactive)
A498
  GI50: > 100 µM (inactive)
OVCAR-5
  GI50: > 100 µM (inactive)
U-251
  GI50: > 100 µM (inactive)
XF498
  GI50: > 100 µM (inactive)
SF-295
  GI50: > 100 µM (inactive)
EKVX
  GI50: > 100 µM (inactive)
SNB-19
  GI50: > 100 µM (inactive)
OVCAR-8
  GI50: > 100 µM (inactive)
KM-20L2
  GI50: > 100 µM (inactive)
SNB-78
  GI50: > 100 µM (inactive)
A549
  GI50: > 100 µM (inactive)
SN12C
  GI50: > 100 µM (inactive)
OVCAR-3
  GI50: > 100 µM (inactive)
SK-OV-3
  GI50: > 100 µM (inactive)
HCT-15
  GI50: > 100 µM
IGROV-1
  GI50: > 100 µM (inactive)
NCI-H460
  GI50: > 100 µM (inactive)
KM12
  GI50: > 100 µM (inactive)
SW-620
  GI50: > 100 µM (inactive)
HOP-18
  GI50: > 100 µM (inactive)
HOP-92
  GI50: > 100 µM (inactive)
SNB-75
  GI50: > 100 µM (inactive)
COLO 205
  GI50: > 100 µM (inactive)
SF-268
  GI50: > 100 µM (inactive)
ACHN
  GI50: > 100 µM (inactive)
MOLT-4
  GI50: > 100 µM (inactive)
NCI-H522
  GI50: > 100 µM (inactive)
K562
  GI50: > 100 µM (inactive)
RPMI-8226
  GI50: > 100 µM (inactive)
DMS-273
  GI50: > 100 µM (inactive)
TK-10
  GI50: > 100 µM (inactive)
CAKI-1
  GI50: > 100 µM (inactive)
SK-MEL-5
  GI50: > 100 µM (inactive)
UACC-62
  GI50: > 100 µM (inactive)
Malme-3M
  GI50: > 100 µM (inactive)

## CC(C)=CCC/C(C)=C/CC/C(C)=C/C1CCC(=O)C1(C)C (configuration not stated)
HCT-116
  GI50: 17 µM (inactive)
NCI-H23
  GI50: 20.3 µM (inactive)
NCI-H226
  GI50: 14.7 µM (inactive)
RXF 631
  GI50: 44.6 µM (inactive)
M19-MEL
  GI50: 19.2 µM (inactive)
DLD-1
  GI50: 17.4 µM (inactive)
OVCAR-4
  GI50: 24.9 µM (inactive)
SK-MEL-2
  GI50: 17.4 µM (inactive)
UACC-257
  GI50: 21.3 µM (inactive)
HL-60
  GI50: 11.6 µM (inactive)
SR
  GI50: 19.7 µM (inactive)
HCC 2998
  GI50: 22.9 µM (inactive)
CCRF-CEM
  GI50: 17.1 µM (inactive)
LOX IMVI
  GI50: 15.3 µM (inactive)
786-0
  GI50: 17.9 µM (inactive)
HOP-62
  GI50: 26.5 µM (inactive)
LXFL 529
  GI50: 17.3 µM (inactive)
HT-29
  GI50: 17.5 µM (inactive)
SK-MEL-28
  GI50: 22.1 µM (inactive)
M14
  GI50: 19.5 µM (inactive)
RXF 393
  GI50: 22.1 µM (inactive)
UO-31
  GI50: 17 µM (inactive)
SF-539
  GI50: 19.5 µM (inactive)
A498
  GI50: 18.5 µM (inactive)
OVCAR-5
  GI50: 19.1 µM (inactive)
U-251
  GI50: 18.1 µM (inactive)
XF498
  GI50: 18.2 µM (inactive)
SF-295
  GI50: 18.3 µM (inactive)
EKVX
  GI50: 19.7 µM (inactive)
SNB-19
  GI50: 25.1 µM (inactive)
OVCAR-8
  GI50: 19.6 µM (inactive)
KM-20L2
  GI50: 16.3 µM (inactive)
SNB-78
  GI50: 22.6 µM (inactive)
A549
  GI50: 27 µM (inactive)
SN12C
  GI50: 16.2 µM (inactive)
OVCAR-3
  GI50: 17.1 µM (inactive)
SK-OV-3
  GI50: 30.3 µM (inactive)
DMS-114
  GI50: 14.5 µM (inactive)
HCT-15
  GI50: 15.5 µM
IGROV-1
  GI50: 19.1 µM (inactive)
NCI-H460
  GI50: 17.5 µM (inactive)
KM12
  GI50: 16.3 µM (inactive)
HOP-18
  GI50: 22.4 µM (inactive)
HOP-92
  GI50: 25.9 µM (inactive)
SNB-75
  GI50: 28.5 µM (inactive)
COLO 205
  GI50: 16.2 µM (inactive)
SF-268
  GI50: 17.1 µM (inactive)
ACHN
  GI50: 16.6 µM (inactive)
MOLT-4
  GI50: 22.8 µM (inactive)
NCI-H522
  GI50: 15.2 µM (inactive)
K562
  GI50: 19.8 µM (inactive)
RPMI-8226
  GI50: 20 µM (inactive)
TK-10
  GI50: 39.4 µM (inactive)
CAKI-1
  GI50: 20.7 µM (inactive)
SK-MEL-5
  GI50: 15.1 µM (inactive)
UACC-62
  GI50: 19.1 µM (inactive)
Malme-3M
  GI50: 18.3 µM (inactive)
